The values that follow come from BindingDB's records for patent US11440899 (Merck Patent GmbH, 2022).

Usually pIC50 stands for the negative decadic logarithm of the IC50, by convention in mol/L. Low values mean a large IC50, high ones a small IC50.

Test [1] has as its target T1, Serine/threonine-protein kinase TBK1 (Homo sapiens, UniProt Q9UHD2).
T1 sequence (Q9UHD2 whole entry): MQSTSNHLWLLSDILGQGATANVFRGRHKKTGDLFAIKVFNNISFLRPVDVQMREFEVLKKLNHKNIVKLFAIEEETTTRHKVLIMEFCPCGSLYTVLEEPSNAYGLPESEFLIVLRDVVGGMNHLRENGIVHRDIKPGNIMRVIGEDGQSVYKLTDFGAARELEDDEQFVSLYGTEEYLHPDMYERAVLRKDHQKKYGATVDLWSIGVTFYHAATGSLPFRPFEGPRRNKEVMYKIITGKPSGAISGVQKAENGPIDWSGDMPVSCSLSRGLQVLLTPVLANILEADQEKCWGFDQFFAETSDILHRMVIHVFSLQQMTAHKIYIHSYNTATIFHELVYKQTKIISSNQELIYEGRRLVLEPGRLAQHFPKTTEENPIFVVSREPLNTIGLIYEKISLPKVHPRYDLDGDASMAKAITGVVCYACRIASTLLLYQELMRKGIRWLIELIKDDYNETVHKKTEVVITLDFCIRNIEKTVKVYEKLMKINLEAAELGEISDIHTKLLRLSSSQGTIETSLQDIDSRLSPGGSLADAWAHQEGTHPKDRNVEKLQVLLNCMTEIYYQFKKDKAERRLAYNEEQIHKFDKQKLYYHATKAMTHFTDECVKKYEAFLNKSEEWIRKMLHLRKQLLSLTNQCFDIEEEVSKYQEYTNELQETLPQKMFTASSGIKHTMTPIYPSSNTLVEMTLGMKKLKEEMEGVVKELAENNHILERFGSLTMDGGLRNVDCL
The test is described as follows: TBK Biochemical Assay. As for the experimental part: (§1) Test compounds were transferred into Labcyte polypropylene 384 well plates (P055-25) and diluted to 3 mM using DMSO. 3 mM test compounds were dispensed using Labcyte ECHO dose response module into Greiner 784075 plates (columns 3-12 and 13-22, 10 point 1:4) so that high concentration was 30 uM final. 100 uM of a reference compound (1 uM final high concentration). Backfilling was performed if necessary so that all wells contain 1% DMSO final:add 75 nl DMSO/well into columns 1, 2 and 24 using Labcyte Echo.add 75 nl 1.0 mM staurosporine/well into column 23 using Labcyte Echo (10 uM final)add 4.5 ul enzyme/well using multidrop dispenseradd 3 ul substrate/well using multidrop dispenserincubate at 25° C. in Heidolph incubator for 90 min.add 7.5 ul 2× stop buffer using multidrop dispenserread on labchip ez reader II using TBK1.jobRaw data files were opened in the Caliper LabChip Reviewer program (Version 3.0.265.0 SP2) and peak assignments were adjusted to reflect substrate first with the software's post-run analysis options. A spline-fit baseline was applied using the software's analysis algorithm.

The target of test [2] is T2, Inhibitor of nuclear factor kappa-B kinase subunit epsilon (Homo sapiens, UniProt Q14164).
T2 sequence (Q14164 whole entry): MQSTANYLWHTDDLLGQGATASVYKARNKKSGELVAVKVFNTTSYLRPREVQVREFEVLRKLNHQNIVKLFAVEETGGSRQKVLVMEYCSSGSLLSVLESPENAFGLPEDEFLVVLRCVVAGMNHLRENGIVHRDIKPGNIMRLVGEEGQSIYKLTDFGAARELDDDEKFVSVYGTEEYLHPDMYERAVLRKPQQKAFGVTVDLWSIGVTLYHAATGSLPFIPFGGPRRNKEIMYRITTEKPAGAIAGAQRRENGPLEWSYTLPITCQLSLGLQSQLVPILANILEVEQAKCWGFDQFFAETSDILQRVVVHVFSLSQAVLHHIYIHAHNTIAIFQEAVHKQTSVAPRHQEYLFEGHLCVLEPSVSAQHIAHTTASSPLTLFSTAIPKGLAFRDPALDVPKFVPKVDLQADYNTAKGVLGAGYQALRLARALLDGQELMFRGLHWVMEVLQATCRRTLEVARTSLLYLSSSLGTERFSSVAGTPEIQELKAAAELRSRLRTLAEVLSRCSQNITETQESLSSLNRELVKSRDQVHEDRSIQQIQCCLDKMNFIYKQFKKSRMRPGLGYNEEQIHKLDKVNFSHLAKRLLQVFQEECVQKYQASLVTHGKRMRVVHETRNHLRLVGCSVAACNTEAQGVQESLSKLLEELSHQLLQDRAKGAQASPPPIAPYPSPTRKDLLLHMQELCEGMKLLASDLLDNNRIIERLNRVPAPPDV
Put plainly: IKKe Biochemical Assay. As to the method:
as §1, with “C.” for “C. in Heidolph incubator”, “bufferread” for “buffer using multidrop dispenserread”, “IKKε. jobRaw” for “TBK1.jobRaw”

pIC50: −log10 of the molar value. Some results are limits rather than exact numbers.

In the case of `COc1nc(Nc2cc(-c3ccc(O[C@@H]4CCN(C(=O)[C@@H](C)O)CC4(F)F)c(C#N)c3)ncn2)ccc1N1CCN(C2COC2)CC1` [US11440899, Example 96], the negative logarithm of the IC50 (pIC50) in test [1] and in test [2] was more than 7.00 each time.
